Test results published in ChEMBL document CHEMBL5724914, “Linking interpersonal differences in gut microbiota composition and drug biotransformation activity” (2024).

What was measured:
[1] = human gut metagenome, 24 h, 2 µM
[2] = human gut metagenome, 24 h, 2 µM; remark: listed apart in the source
[3] = human gut metagenome, 24 h, 2 µM; remark: listed apart in the source
[4] = The drug is tested on WLS-006 corresponding to human gut metagenome with ENA study accession number: PRJEB37062 and ENA sample accession number: ERS12561741 for biotransformation under anaerobic condition. The drug concentrations were measured over 9 timepoints collected between 0 and 24 hours of incubation by liquid-chromatography-coupled mass spectrometry (LC–MS); details: 2 µM
[5] = The drug is tested on WLS-240 corresponding to human gut metagenome with ENA study accession number: PRJEB37062 and ENA sample accession number: ERS12561773 for biotransformation under anaerobic condition. The drug concentrations were measured over 9 timepoints collected between 0 and 24 hours of incubation by liquid-chromatography-coupled mass spectrometry (LC–MS); details: 2 µM
[6] = human gut metagenome, 24 h, 2 µM; remark: listed apart in the source
[7] = human gut metagenome, 24 h, 2 µM; remark: listed apart in the source
[8] = The drug is tested on Z-028 corresponding to mouse gut metagenome with ENA study accession number: PRJEB37062 and ENA sample accession number: ERS12561827 for biotransformation under anaerobic condition. The drug concentrations were measured over 9 timepoints collected between 0 and 24 hours of incubation by liquid-chromatography-coupled mass spectrometry (LC–MS); details: 2 µM
[9] = The drug is tested on Z-009 corresponding to pig gut metagenome with ENA study accession number: PRJEB37062 and ENA sample accession number: ERS12561809 for biotransformation under anaerobic condition. The drug concentrations were measured over 9 timepoints collected between 0 and 24 hours of incubation by liquid-chromatography-coupled mass spectrometry (LC–MS); details: 2 µM
[10] = human gut metagenome, 24 h, 2 µM; remark: listed apart in the source
[11] = human gut metagenome, 24 h, 2 µM; remark: listed apart in the source
[12] = The drug is tested on Z-004 corresponding to metagenome with ENA study accession number: PRJEB37062 and ENA sample accession number: ERS12561804 for biotransformation under anaerobic condition. The drug concentrations were measured over 9 timepoints collected between 0 and 24 hours of incubation by liquid-chromatography-coupled mass spectrometry (LC–MS); details: 2 µM
[13] = The drug is tested on WLS-039 corresponding to human gut metagenome with ENA study accession number: PRJEB37062 and ENA sample accession number: ERS12561746 for biotransformation under anaerobic condition. The drug concentrations were measured over 9 timepoints collected between 0 and 24 hours of incubation by liquid-chromatography-coupled mass spectrometry (LC–MS); details: 2 µM
[14] = human gut metagenome, 24 h, 2 µM; remark: listed apart in the source
[15] = The drug is tested on Z-007 corresponding to rat gut metagenome with ENA study accession number: PRJEB37062 and ENA sample accession number: ERS12561807 for biotransformation under anaerobic condition. The drug concentrations were measured over 9 timepoints collected between 0 and 24 hours of incubation by liquid-chromatography-coupled mass spectrometry (LC–MS); details: 2 µM
[16] = The drug is tested on Z-017 corresponding to mouse gut metagenome with ENA study accession number: PRJEB37062 and ENA sample accession number: ERS12561816 for biotransformation under anaerobic condition. The drug concentrations were measured over 9 timepoints collected between 0 and 24 hours of incubation by liquid-chromatography-coupled mass spectrometry (LC–MS); details: 2 µM
[17] = The drug is tested on Z-026 corresponding to metagenome with ENA study accession number: PRJEB37062 and ENA sample accession number: ERS12561825 for biotransformation under anaerobic condition. The drug concentrations were measured over 9 timepoints collected between 0 and 24 hours of incubation by liquid-chromatography-coupled mass spectrometry (LC–MS); details: 2 µM
[18] = The drug is tested on Z-030 corresponding to mouse gut metagenome with ENA study accession number: PRJEB37062 and ENA sample accession number: ERS12561829 for biotransformation under anaerobic condition. The drug concentrations were measured over 9 timepoints collected between 0 and 24 hours of incubation by liquid-chromatography-coupled mass spectrometry (LC–MS); details: 2 µM
[19] = human gut metagenome, 24 h, 2 µM; remark: listed apart in the source
[20] = The drug is tested on Z-005 corresponding to metagenome with ENA study accession number: PRJEB37062 and ENA sample accession number: ERS12561805 for biotransformation under anaerobic condition. The drug concentrations were measured over 9 timepoints collected between 0 and 24 hours of incubation by liquid-chromatography-coupled mass spectrometry (LC–MS); details: 2 µM
Note: call rule not given here.

SMILES	Bacterial Biotransformation [1]	Bacterial Biotransformation [2]	Bacterial Biotransformation [3]	Bacterial Biotransformation [4]	Bacterial Biotransformation [5]	Bacterial Biotransformation [6]	Bacterial Biotransformation [7]	Bacterial Biotransformation [8]	Bacterial Biotransformation [9]	Bacterial Biotransformation [10]	Bacterial Biotransformation [11]	Bacterial Biotransformation [12]	Bacterial Biotransformation [13]	Bacterial Biotransformation [14]	Bacterial Biotransformation [15]	Bacterial Biotransformation [16]	Bacterial Biotransformation [17]	Bacterial Biotransformation [18]	Bacterial Biotransformation [19]	Bacterial Biotransformation [20]
CN(C)C(=O)Oc1cccc([N+](C)(C)C)c1.[Br-] [NEOSTIGMINE BROMIDE]	Compound NOT metabolized	Compound NOT metabolized	Compound NOT metabolized	Compound NOT metabolized	Compound NOT metabolized	Compound NOT metabolized	Compound NOT metabolized	Compound NOT metabolized	Compound NOT metabolized	Compound NOT metabolized	Compound NOT metabolized	Compound NOT metabolized	Compound NOT metabolized	Compound NOT metabolized	Compound NOT metabolized	Compound NOT metabolized	Compound NOT metabolized	Compound NOT metabolized	Compound NOT metabolized	Compound NOT metabolized
CN[C@H]1CC[C@@H](c2ccc(Cl)c(Cl)c2)c2ccccc21 [SERTRALINE]	Compound metabolized	Compound metabolized	Compound metabolized	Compound metabolized	Compound NOT metabolized	Compound metabolized	Compound NOT metabolized	Compound NOT metabolized	Compound metabolized	Compound NOT metabolized	Compound metabolized	Compound metabolized	Compound metabolized	Compound NOT metabolized	Compound NOT metabolized	Compound metabolized	Compound metabolized	Compound NOT metabolized	Compound NOT metabolized	Compound NOT metabolized
CCc1cccc2c3c([nH]c12)C(CC)(CC(=O)O)OCC3 (stereo not given) [ETODOLAC]	Compound metabolized	Compound NOT metabolized	Compound metabolized	Compound metabolized	Compound metabolized	Compound metabolized	Compound metabolized	Compound NOT metabolized	Compound NOT metabolized	Compound NOT metabolized	Compound NOT metabolized	Compound NOT metabolized	Compound metabolized	Compound metabolized	Compound NOT metabolized	Compound NOT metabolized	Compound NOT metabolized	Compound NOT metabolized	Compound metabolized	Compound NOT metabolized
COc1ccc([C@@H]2Sc3ccccc3N(CCN(C)C)C(=O)[C@@H]2OC(C)=O)cc1 [DILTIAZEM]	Compound metabolized	Compound NOT metabolized	Compound metabolized	Compound metabolized	Compound metabolized	Compound metabolized	Compound metabolized	Compound metabolized	Compound metabolized	Compound NOT metabolized	Compound metabolized	Compound metabolized	Compound metabolized	Compound metabolized	Compound NOT metabolized	Compound NOT metabolized	Compound NOT metabolized	Compound NOT metabolized	Compound NOT metabolized	Compound NOT metabolized
O=C1CN2Cc3c(ccc(Cl)c3Cl)N=C2N1 [ANAGRELIDE]	Compound metabolized	Compound metabolized	Compound NOT metabolized	Compound metabolized	Compound metabolized	Compound metabolized	Compound NOT metabolized	Compound NOT metabolized	Compound NOT metabolized	Compound NOT metabolized	Compound NOT metabolized	Compound NOT metabolized	Compound NOT metabolized	Compound NOT metabolized	Compound NOT metabolized	Compound NOT metabolized	Compound NOT metabolized	Compound NOT metabolized	Compound NOT metabolized	Compound NOT metabolized
CN1CCN2c3ccccc3Cc3ccccc3C2C1 (stereo not given) [MIANSERIN]	Compound metabolized	Compound metabolized	Compound metabolized	Compound NOT metabolized	Compound NOT metabolized	Compound metabolized	Compound NOT metabolized	Compound NOT metabolized	Compound metabolized	Compound NOT metabolized	Compound metabolized	Compound NOT metabolized	Compound metabolized	Compound metabolized	Compound NOT metabolized	Compound NOT metabolized	Compound NOT metabolized	Compound NOT metabolized	Compound metabolized	Compound NOT metabolized
